Data reported in patent publication US20160331708A1 (priority 2014, published 2016).
Converted amounts (≈) assume the structure as drawn. “And” between values parts separate entries of the source, which are not always exact repeats. Equal entries are not always repeated. Structures can show the parent of a compound that is named as a salt. Where two headings read alike, the source gives them in different places. Numbered stars: 1 amine (or outer) side, 2 acyl side, 3 side chain; on linkers, the order of the positions; unused ones are H or OH. Bridge positions count the residues as written; N and C are the ends. Square brackets hold non-standard residues; d marks the D form. Peptide text beside a SMILES is read from it. I, II: the chains in the order shown. Actinocin(9to1) = Cc1c2oc3c(C)ccc(C(=O)[*:1])c3nc-2c(C(=O)[*:2])c(N)c1=O; NMeV = CN[C@H](C(=O)O)C(C)C; Sar = CNCC(=O)O

How the values were obtained:
Bacillus subtilis 168 = experiment: Antibiotic MIC tests in microtiter plates; conditions: for effect on the MIC of streptomycin: related compounds tested for synergistic effect with streptomycin (text, Table 4 title); for MIC with anthranilic acid (2.2 mM): antibiotic against B. subtilis in the presence of anthranilic acid (2.2 mM); for Effect: effect of anthranilic acid (2.2 mM) on MIC of the antibiotic against B. subtilis; for effect on MIC value when combined with anthranilic acid: anthranilic acid at around 2 mM, B. subtilis
Streptomyces MBT3 = experiment: TLC biogram / agar overlay antimicrobial assay of EtOAc extracts of Streptomyces MBT3 cultures treated with plant hormones; assay type: cell-based, Streptomyces sp MBT3 (indicator strain B. subtilis); conditions: methyl-jasmonate 100 μM or salicylic acid 250 μM added to 7 day cultures, 24 hours; B. subtilis indicator
Method: All media for growth of Streptomyces are described in (Kieser et al., 2000). For the preparation of Streptomyces cultures, spores were obtained from SFM agar plates and inoculated at a density of 5×10^6 into 20 ml liquid minimal media with mannitol and glycerol as the carbon sources culture media in a 250 ml Erlenmeyer flask and incubated at 30° C. in a rotary shaker (250 rpm). Mycelia were precipitated by centrifugation for 10 minutes at 12,000 g. Each replicate of culture supernatant was extracted twice with an equal amount (40 ml in total) of analytically pure EtOAc (Sigma-Aldrich St. Louis, Mo., USA). Two grams of Na2SO4 was then added into the organic phase to remove remaining water and was evaporated under vacuum at 38° C. Samples were then re-dissolved in Methanol-d4 (99.8%) (Cambridge Isotope Laboratories, Inc., Andover, Mass., USA) for NMR analysis. 1.5 ml of the culture was collected every three hours and centrifuged. […]
Actinomycetes are very abundantly present in the plant rhizosphere. […] The ethyl acetate extract of the culture fluid of MBT3 was analyzed further for metabolic profile and antimicrobial activity against Bacillus subtilis.
Antimicrobial activity of the extracts was analyzed using thin layer chromatography (TLC) biograms. […]

Legionella pneumophila = conditions: Sasaki et al., 2012; cited from earlier work
[1] = Bacillus subtilis, 168, compound alone (Table 4)
[2] = antibiotic alone against B. subtilis (Table 2)
[3] = antibiotic alone against B. subtilis (Table 3)
[4] = Bacillus subtilis, 168, antibiotic alone against B. subtilis (Table 2)
[5] = Bacillus subtilis, 168, antibiotic alone against B. subtilis (Table 3)

Compound: O=C(O)[C@@H]1CCCN1 (racemic) [D,L-Proline]
- MIC (Bacillus subtilis 168; compound alone (Table 4)): >750 µg/mL

Compound: O=C(O)c1cccc(O)c1O [2,3-dihydroxybenzoic acid]
- MIC (Bacillus subtilis 168; [1]): 750 µg/mL (≈ 4870 µM)
- effect on the MIC of streptomycin (Bacillus subtilis 168): duplication of the MIC value

Compound: Nc1cc(N)cc(C(=O)O)c1 [3,5-diaminobenzoic acid]
- MIC (Bacillus subtilis 168; [1]): > 750 µg/mL

Compound: Nc1cccc(C(=O)O)c1 [3-aminobenzoic acid]
- MIC (Bacillus subtilis 168; [1]): 750 µg/mL (≈ 5470 µM)

Compound: Nc1ccc(C(=O)O)cc1 [4-aminobenzoic acid]
- MIC (Bacillus subtilis 168; [1]): 750 µg/mL (≈ 5470 µM)

Compound: Cc1c2oc3c(C)ccc(C(=O)N[C@@H]4C(=O)N[C@H](C(C)C)C(=O)N5CCC[C@H]5C(=O)N(C)CC(=O)N(C)[C@@H](C(C)C)C(=O)O[C@@H]4C)c3nc-2c(C(=O)N[C@@H]2C(=O)N[C@H](C(C)C)C(=O)N3CCC[C@H]3C(=O)N(C)CC(=O)N(C)[C@@H](C(C)C)C(=O)O[C@@H]2C)c(N)c1=O [Actinomycin D] (I: T[dV]P[Sar][NMeV] / II: T[dV]P[Sar][NMeV]; ester I:1-I:C, II:1-II:C; linker I:N-II:N via Actinocin(9to1))
- MIC with anthranilic acid (2.2 mM) (Bacillus subtilis 168): 0.156 µg/mL
- MIC (Bacillus subtilis 168; [2]): 0.156 µg/mL (≈ 0.124 µM)
- MIC (Bacillus subtilis 168; [3]): 0.156 µg/mL (≈ 0.124 µM)
- Effect (Bacillus subtilis 168): No effect

Compound: CC1(C)S[C@@H]2[C@H](NC(=O)[C@H](N)c3ccccc3)C(=O)N2[C@H]1C(=O)O [Ampicillin (sodium salt), Ampicillin]
- MIC (Bacillus subtilis 168; [4]): 0.0153 µg/mL

Compound: NC(=O)c1ccccc1N [Anthranilic acid amide]
- MIC (Bacillus subtilis 168; [1]): > 1500 µg/mL

Compound: CN[C@@H]1[C@@H](O[C@H]2O[C@H](CO)[C@@H](N)[C@H](O)[C@H]2O)OC2C[C@@H](N)[C@@H](O[C@H]3[C@H](O)[C@@H](O)[C@H](N)C[C@@H]3N)OC2[C@@H]1O (stereo partly drawn) [Apramycin (sulfate), Apramycin]
- MIC (Bacillus subtilis 168; [4]): 1.95 µg/mL
- MIC (Bacillus subtilis 168; [5]): 1.95 µg/mL
- MIC with anthranilic acid (2.2 mM) (Bacillus subtilis 168): 1.953 µg/mL
- Effect (Bacillus subtilis 168): No effect

Compound: Oc1ccccc1O [Catechol]
- MIC (Bacillus subtilis 168; [1]): 750 µg/mL (≈ 6810 µM)
- effect on the MIC of streptomycin (Bacillus subtilis 168): duplication of the MIC value

Compound: CC1=C(C(=O)O)N2C(=O)[C@@H](NC(=O)[C@H](N)c3ccccc3)[C@H]2SC1 [Cephalexin (1H2O), Cephalexin]
- MIC (Bacillus subtilis 168; [4]): 0.122 µg/mL (≈ 0.351 µM)
- MIC (Bacillus subtilis 168; [5]): 0.122 µg/mL (≈ 0.351 µM)
- Effect (Bacillus subtilis 168): Lower MIC

Compound: O=C(N[C@H](CO)[C@H](O)c1ccc([N+](=O)[O-])cc1)C(Cl)Cl [Chloramphenicol]
- MIC (Bacillus subtilis 168; [4]): 125 µg/mL (≈ 387 µM)
- MIC (Bacillus subtilis 168; [5]): 125 µg/mL (≈ 387 µM)
- MIC with anthranilic acid (2.2 mM) (Bacillus subtilis 168): 125 µg/mL
- Effect (Bacillus subtilis 168): No effect

Compound: CCC[C@@H]1C[C@@H](C(=O)N[C@@H]([C@H]2O[C@H](SC)[C@H](O)[C@@H](O)[C@H]2O)[C@H](C)Cl)N(C)C1 [Clindamycin (HCl), Clindamycin]
- MIC (Bacillus subtilis 168; [4]): 0.488 µg/mL
- MIC (Bacillus subtilis 168; [5]): 0.488 µg/mL
- MIC with anthranilic acid (2.2 mM) (Bacillus subtilis 168): 0.244 µg/mL

Compound: CC[C@H]1OC(=O)[C@H](C)[C@@H](O[C@H]2C[C@@](C)(OC)[C@@H](O)[C@H](C)O2)[C@H](C)[C@@H](O[C@@H]2O[C@H](C)C[C@H](N(C)C)[C@H]2O)[C@](C)(O)C[C@@H](C)C(=O)[C@H](C)[C@@H](O)[C@]1(C)O [Erythromycin]
- MIC (Bacillus subtilis 168; [4]): 0.122 µg/mL (≈ 0.166 µM)

Compound: NC[C@H]1O[C@H](O[C@H]2[C@H](O)[C@@H](O[C@H]3O[C@H](CO)[C@@H](O)[C@H](N)[C@H]3O)[C@H](N)C[C@@H]2N)[C@H](O)[C@@H](O)[C@@H]1O [Kanamycin (sulfate), Kanamycin]
- MIC (Bacillus subtilis 168; [4]): 125 µg/mL
- MIC (Bacillus subtilis 168; [5]): 125 µg/mL
- MIC with anthranilic acid (2.2 mM) (Bacillus subtilis 168): 31.2 µg/mL

Compound: O=C1O[C@H]([C@@H](O)CO)C(O)=C1O [L-Ascorbic acid (sodium salt), L-Ascorbic acid]
- MIC (Bacillus subtilis 168; [1]): > 750 µg/mL

Compound: O=C(O)[C@@H]1CCCN1 [L-Proline]
- MIC (Bacillus subtilis 168; [1]): > 1500 µg/mL

Compound: CCn1cc(C(=O)O)c(=O)c2ccc(C)nc21 [Nalidixic acid]
- MIC (Bacillus subtilis 168; [4]): 3.1 µg/mL (≈ 13.3 µM)

Compound: CC1(C)S[C@@H]2[C@H](NC(=O)Cc3ccccc3)C(=O)N2[C@H]1C(=O)[O-].[Na+] [Penicillin G (sodium salt), Penicillin G]
- effect on MIC value when combined with anthranilic acid (Bacillus subtilis 168): decreased
- MIC with anthranilic acid (2.2 mM) (Bacillus subtilis 168): 0.0031 µg/mL
- MIC (Bacillus subtilis 168; [2]): 0.0062 µg/mL
- MIC (Bacillus subtilis 168; [3]): 0.0062 µg/mL
- Effect (Bacillus subtilis 168): Lower MIC

Compound: CO[C@H]1/C=C/O[C@@]2(C)Oc3c(C)c(O)c4c(O)c(c(/C=N/N5CCN(C)CC5)c(O)c4c3C2=O)NC(=O)/C(C)=C\C=C\[C@H](C)[C@H](O)[C@@H](C)[C@@H](O)[C@@H](C)[C@H](OC(C)=O)[C@@H]1C [Rifampin]
- MIC (Bacillus subtilis 168; [4]): 0.0122 µg/mL (≈ 0.0148 µM)
- MIC (Bacillus subtilis 168; [5]): 0.0122 µg/mL (≈ 0.0148 µM)
- MIC with anthranilic acid (2.2 mM) (Bacillus subtilis 168): 0.0122 µg/mL
- Effect (Bacillus subtilis 168): No effect

Compound: O=C(O)c1ccccc1O [Salicylic acid (sodium salt), Salicylic acid]
- MIC (Bacillus subtilis 168; [1]): > 1500 µg/mL
- effect on antimicrobial activity (bioactivity) of MBT3 (Streptomyces MBT3): no effect

Compound: [H]/N=C(/N)N[C@H]1[C@H](O)[C@@H](O)[C@H](O[C@@H]2O[C@@H](C)[C@](O)(C=O)[C@H]2O[C@@H]2O[C@@H](CO)[C@H](O)[C@@H](O)[C@@H]2NC)[C@@H](N/C(N)=N\[H])[C@@H]1O [Streptomycin (sulfate), Streptomycin]
- MIC of streptomycin (Bacillus subtilis 168; 75 μg/μl anthranilate): 15000 µg/mL
- reduction of MIC of streptomycin (Bacillus subtilis 168; 75 μg/μl anthranilate): 50%
- MIC (Bacillus subtilis 168; [4]): 31.2 µg/mL
- MIC (Bacillus subtilis 168; [5]): 31.2 µg/mL
- MIC (Bacillus subtilis 168; [1]): 31.2 µg/mL
- MIC (Bacillus subtilis 168; Bacillus subtilis, 168, read-out: MIC value of streptomycin, Bacillus subtilis, no anthranilic acid (FIG. 3)): 31.2 µg/mL
- MIC (Bacillus subtilis 168; Bacillus subtilis, 168, read-out: MIC value of streptomycin, at 300 μg/ml anthranilic acid (FIG. 3)): 5 µg/mL
- MIC value of streptomycin (Bacillus subtilis 168; Bacillus subtilis, no anthranilic acid (FIG. 3)): 30 µg/mL and 31.25 ± 0.05 µg/mL
- reduction in the MIC of streptomycin (Bacillus subtilis 168; anthranilate at concentrations of 300 μg/μl and higher): six-fold
- MIC value of Streptomycin reduced by a factor (Bacillus subtilis 168; anthranilic acid about 50 μg/ml in the culture): 2
- MIC value of Streptomycin reduced by a factor (Bacillus subtilis 168; anthranilic acid about 150 μg/ml in the culture): 3
- MIC value of Streptomycin reduced by a factor (Bacillus subtilis 168; anthranilic acid about 300 μg/ml in the culture): 6
- effect on MIC value when combined with anthranilic acid (Bacillus subtilis 168): decreased
- MIC with anthranilic acid (2.2 mM) (Bacillus subtilis 168): 5 µg/mL
- decrease of streptomycin MIC (times) (Bacillus subtilis 168; combined with anthranilic acid, concentration dependent): up to 6 times
- Effect (Bacillus subtilis 168): Lower MIC

Compound: CN[C@H](CC(C)C)C(=O)N[C@H]1C(=O)N[C@@H](CC(N)=O)C(=O)N[C@H]2C(=O)N[C@H]3C(=O)N[C@H](C(=O)N[C@H](C(=O)O)c4cc(O)cc(O)c4-c4cc3ccc4O)[C@H](O)c3ccc(c(Cl)c3)Oc3cc2cc(c3O[C@@H]2O[C@H](CO)[C@@H](O)[C@H](O)[C@H]2O[C@H]2C[C@](C)(N)[C@H](O)[C@H](C)O2)Oc2ccc(cc2Cl)[C@H]1O [Vancomycin (HCl), Vancomycin]
- MIC (Bacillus subtilis 168; Bacillus subtilis, 168): 0.156 µg/mL
- effect on MIC value when combined with anthranilic acid (Bacillus subtilis 168): No synergistic effect
- MIC with anthranilic acid (2.2 mM) (Bacillus subtilis 168): 0.156 µg/mL
- MIC (Bacillus subtilis 168; [3]): 0.156 µg/mL
- Effect (Bacillus subtilis 168): No effect

Compound: Nc1ccccc1C(=O)O [anthranilic acid]
- activity against B. subtilis (Bacillus subtilis 168; compound itself, at concentrations below 5 mg/ml): did not show any activity
- growth inhibitory effect (Legionella pneumophila): mild growth inhibitory effect

Compound: CC/C=C\CC1C(=O)CCC1CC(=O)OC (stereo not drawn) [methyl jasmonate]
- effect on antimicrobial activity (bioactivity) of MBT3 (Streptomyces MBT3): strongly enhanced

Compound: Actinomycin C
- effect on MIC value when combined with anthranilic acid (Bacillus subtilis 168): decreased
- MIC with anthranilic acid (2.2 mM) (Bacillus subtilis 168): 0.039 µg/mL
- MIC (Bacillus subtilis 168; [2]): 0.078 µg/mL
- MIC (Bacillus subtilis 168; [3]): 0.078 µg/mL
- Effect (Bacillus subtilis 168): Lower MIC

Compound: Actinomycin C2
- MIC (Bacillus subtilis 168; [2]): 0.25 µg/mL

Compound: Benzoic acid
- MIC (Bacillus subtilis 168; compound alone (Table 4)): >750 µg/mL

Compound: Gentamycin [Gentamycin (sulfate)]
- effect on MIC value when combined with anthranilic acid (Bacillus subtilis 168): decreased
- MIC with anthranilic acid (2.2 mM) (Bacillus subtilis 168): 0.625 µg/mL
- MIC (Bacillus subtilis 168; [2]): 1.25 µg/mL
- MIC (Bacillus subtilis 168; [3]): 1.25 µg/mL
- Effect (Bacillus subtilis 168): Lower MIC

Compound: Neomycin [Neomycin (sulfate)]
- effect on MIC value when combined with anthranilic acid (Bacillus subtilis 168): decreased
- MIC with anthranilic acid (2.2 mM) (Bacillus subtilis 168): 15.6 µg/mL
- MIC (Bacillus subtilis 168; [2]): 62.5 µg/mL
- MIC (Bacillus subtilis 168; [3]): 62.5 µg/mL
- Effect (Bacillus subtilis 168): Lower MIC
